{
  "source": "patent US20110059081A1",
  "about": "“METHODS AND COMPOSITIONS FOR THE TREATMENT OF RECEPTOR TYROSINE KINASE MEDIATED DISEASES OR DISORDERS” (QUINTILES TRANSNATIONAL CORP., priority 2009, published 2011)",
  "format_in_all_cases": "cell-based",
  "key": {"[1]": {"test_system": "MAPK signaling (pAKT, pErk1/2)", "assay": "Western blot of pAKT and pErk1/2 in KRAS mutant A549 cells treated with EGF, Methotrexate, C225 or combination", "procedure": "For Methotrexate treatments, A549 lung tumor cells were treated with 1.0 μM Methotrexate in full serum media for 24 hours followed by withdrawal of Methotrexate and serum starvation (1.0% FBS) for 48 hours in the absence or presence of 5 ng/ml EGF added for the final 10 minutes before harvest of the cells."}, "[2]": {"test_system": "MAPK signaling (pErk1/2)", "assay": "Western blot of pErk1/2 (MAPK signaling) in A549 cells treated with Methotrexate, with or without EGF", "conditions": "as little as 1.0 μM for 24 hours, then serum starvation 48 hours, with or without 10 ng/ml EGF for final 10 minutes (FIG. 3)", "procedure": "Additionally, in vitro cell signaling studies were conduced to examine MAPK signaling in RAS mutant cells treated with Methotrexate. For Methotrexate treatments, A549 lung tumor cells were treated with 1.0 or 10.0 μM Methotrexate in full serum media for 24 hours followed by withdrawal of Methotrexate and serum starvation (1.0% FBS) for 48 hours in the absence or presence of 10 ng/ml EGF added for the final 10 minutes before harvest of the cells. Next, whole cell extracts were isolated for Western blot analysis of pErk1/2 and pAkt. The presence of β-actin served as an internal control for loading differences between lanes."}, "[3]": {"test_system": "mutant Ras", "assay": "Immunocytochemistry staining for RAS in A549 lung tumor cells", "conditions": "A549 lung tumor cell line, 1.0 micromolar, 48 hours", "procedure": "In an exemplary method, the A549 lung tumor cell line was treated for 48 hours with 1.0 micromolar Methotrexate followed by immunocytochemistry staining for RAS on slides."}},
  "data": [
    {"compound": "CN(Cc1cnc2nc(N)nc(N)c2n1)c1ccc(C(=O)N[C@@H](CCC(=O)O)C(=O)O)cc1", "note": "[Methotrexate]", "values": [
      {"measurement": "inhibition of pErk1/2", "setting": "[1]; EGF stimulation (5 ng/ml), agent alone: 1.0 μM Methotrexate or C225 up to 25 μg/ml", "result": "only slightly inhibited"},
      {"measurement": "amount of detectable pAKT and pErk1/2", "setting": "[1]; agent by itself (FIG. 4)", "result": "slight reduction"},
      {"measurement": "basal and EGF-induced pErk1/2 levels", "setting": "[2]", "result": "reduced both basal and EGF-induce pErk1/2 levels"},
      {"measurement": "overall abundance of mutant Ras", "setting": "[3]; vs untreated cells (FIGS. 1 and 2)", "result": "diminished"},
      {"measurement": "localization of mutant Ras", "setting": "[3]; vs untreated cells (diffuse and at the membrane)", "result": "mislocalization from the plasma membrane resulting in highly cytoplasmic staining of mutant Ras"}
    ]},
    {"compound": "EGF: epidermal growth factor used to stimulate A549 cells (NSDSECPLSHDGYCLHDGVCMYIEALDKYACNCVVGYIGERCQYRDLKWWELR; Epidermal growth factor; UniProt P01133 971-1023, looked up)", "values": [
      {"measurement": "activation of the MAPK pathway (pErk1/2 induction)", "setting": "[1]; EGF stimulation 5 ng/ml for final 10 minutes", "result": "potently activated"}
    ]}
  ]
}
